From US7429612B2, “Indoline compound and medicinal use thereof” (Kyoto Pharmaceutical Industries, Ltd., priority 2002, dated 2008) come the findings set out here.

Counter-ions that a name gives are not always drawn.

In assay [1] the test system is hepatic ACAT. Description: Hepatic ACAT inhibitory activity (rabbit liver microsomes, [1-14C]-oleoyl CoA). Particulars: Concentration: 10^-6 M; inhibition of cholesteryl oleate production vs control. The assay is classed as biochemical, Japanese white rabbits. The procedure:
A high cholesterol feed [a feed added with cholesterol (1%), Clea Japan, Inc.] was fed to male Japanese white rabbits weighing 2-2.5 kg at 100 g per day and the rabbits were bred for 4 weeks. The rabbits were killed by bleeding under anesthesia and liver was removed. The liver was homogenated, and the homogenate was centrifuged at 4° C. and 10,000 rpm for 15 min. The obtained supernatant was further centrifuged at 4° C. and 41,000 rpm for 60 minutes to give microsomal fractions. The microsomal suspension as an enzyme sample, dimethyl sulfoxide (DMSO, […]) or a test compound dissolved in DMSO (test compound solution 3 μl), and reaction substrate [1-^14C]-oleoyl CoA were added to 0.15 M phosphate buffer to the total amount of 300 μl. After incubation at 37° C. for 20 minutes, a chloroform-methanol mixture was added to stop the reaction. Water was added thereto and mixed, and the chloroform layer was separated. The solvent was evaporated to dryness, and the residue was redissolved in n-hexane. The mixture was subjected to thin layer chromatography using a silica gel plate. The spots of cholesteryl oleate on the silica gel plate were scraped, and quantitatively assayed on lo a liquid scintillation counter.
On the technique in general: Microsomes from liver hold many membrane-bound enzymes, among them those of drug oxidation.

Assay [2] concerns THP-1 cell-derived macrophages. The assay is described as follows: THP-1 cell-derived macrophage foam cell formation suppressing effect (cholesterol ester accumulation inhibitory effect). The assay is classed as cell-based. Particulars: Concentration: 10^-6 M, acetyl LDL, 3 days culture; for inhibition at 1 µM: Homo sapiens, THP-1, 72 h, read-out: foam cell formation inhibitory rate (%). The procedure: THP-1 (Dainippon Pharmaceutical Co., Ltd.) cells were passage cultured in RPMI-1640 medium supplemented with 10% fetal bovine serum (FBS), and the cells of passages 6-13 after purchase were used. The cells were suspended in FBS-containing RPMI-1640 medium to give a suspension having a concentration of 4×10^5 cells/mL. The cell suspension was inoculated to a 12 well microplate by 1 mL, and treated with phorbol 12-myristate 13-acetate (PMA, 200 nM) as a differentiation inducing agent into macrophage. Then acetyl LDL 400 μg/mL prepared separately from plasma-derived LDL of genetically hyperlipidemia rabbit (KHC rabbit, Japan Laboratory Animals, Inc.) was added. In addition, a test compound dissolved in DMSO and diluted with FBS-containing RPMI-1640 medium or a control solvent was added. After culture in a carbon dioxide incubator for 3 days, the cells were washed with phosphate buffered physiological saline (pH 7.0), and the lipid was extracted with n-hexane/isopropanol (3:2). The cells were dissolved in 1M-NaOH and the protein amount was measured. The free cholesterol and cholesterol ester in a lipid extraction sample was measured by the method of Kunitomo et al. (1983). The cholesterol ester was compared between the control cell and the test compound-treated cells, and the cholesterol ester accumulation inhibitory rate of the test compound was calculated.

As to `CCCCCCCCS(=O)(=O)Nc1c(C)c(NC(=O)C(C)(C)C)c(C)c2c1NCC2` [Example 29, N-[4,6-dimethyl-7-(1-octanesulfonylamino)indolin-5-yl]-2,2-dimethylpropanamide], the “Hepatic ACAT inhibitory ratio (%)” value in assay [1] is reported as 79.5%.

With `CCCCCCCCN1CCc2c(C)c(NS(=O)(=O)NC(=O)OC)c(C)c(NC(=O)C(C)(C)C)c21` [Example 4, N-[5-(N-methoxycarbonylsulfamoylamino)-4,6-dimethyl-1-octylindolin-7-yl]-2,2-dimethylpropanamide], the “Hepatic ACAT inhibitory ratio (%)” value in assay [1] worked out at 75.8%.

As to `CCSCCN1CCc2c(C)c(NS(N)(=O)=O)c(C)c(NC(=O)C(C)(C)C)c21.Cl` [Example 60, N-[1-(2-ethylthioethyl)-4,6-dimethyl-5-sulfamoylaminoindolin-7-yl]-2,2-dimethylpropanamide hydrochloride], in assay [1], the “Hepatic ACAT inhibitory ratio (%)” value is 97.2%.

As to `CCCCCCCCN1CCc2c(C)c(NS(N)(=O)=O)c(C)c(NC(=O)C(C)(C)C)c21.Cl` [Example 6, N-(4,6-dimethyl-1-octyl-5-sulfamoylaminoindolin-7-yl)-2,2-dimethylpropanamide hydrochloride], the “Hepatic ACAT inhibitory ratio (%)” value in assay [1] was found to be 97.4%. In assay [2], the inhibition at 1 µM is 91.2%.

As to `CCCN1c2c(c(C)c(NS(N)(=O)=O)c(C)c2NC(=O)C(C)(C)C)CC1COC.Cl` (centres unmarked) [Example 50, N-(2-methoxymethyl-4,6-dimethyl-1-propyl-5-sulfamoylaminoindolin-7-yl)-2,2-dimethylpropanamide hydrochloride], in assay [1], the “Hepatic ACAT inhibitory ratio (%)” value worked out at 86.2%. Moreover, the inhibition at 1 µM in assay [2] was 73.6%.

For `CCCCCCC(C)(C)C(=O)Nc1c(C)c2c(c(NS(=O)(=O)C(C)C)c1C)NCC2` [Example 24, N-[4,6-dimethyl-7-(2-propanesulfonylamino)indolin-5-yl]-2,2-dimethyloctanamide], the “Hepatic ACAT inhibitory ratio (%)” value in assay [1] turned out to be 95.7%. Further, in assay [2], the inhibition at 1 µM came out at 90.5%.

In the case of `CCCN1c2c(c(C)c(NS(N)(=O)=O)c(C)c2NC(=O)C(C)(C)C)CC1COCC` (centres unmarked) [Example 51, N-(2-ethoxymethyl-4,6-dimethyl-1-propyl-5-sulfamoylaminoindolin-7-yl)-2,2-dimethylpropanamide hydrochloride], in assay [2], the inhibition at 1 µM stood at 86%.

Turning to `CSCCN1CCc2c(C)c(NS(N)(=O)=O)c(C)c(NC(=O)C(C)(C)C)c21.Cl` [Example 61, N-[4,6-dimethyl-1-(2-methylthioethyl)-5-sulfamoylaminoindolin-7-yl]-2,2-dimethylpropanamide hydrochloride], the “Hepatic ACAT inhibitory ratio (%)” value in assay [1] is 95.4%.

Regarding `CCCCN1CCc2c(C)c(NS(N)(=O)=O)c(C)c(NC(=O)C(C)(C)C)c21.Cl` [Example 19, N-(1-butyl-4,6-dimethyl-5-sulfamoylaminoindolin-7-yl)-2,2-dimethylpropanamide hydrochloride], in assay [1], the “Hepatic ACAT inhibitory ratio (%)” value stood at 93.4%. In assay [2], the inhibition at 1 µM worked out at 73.3%.

As to `CCCCCCCCN1CCc2c(C)c(NC(N)=O)c(C)c(NC(=O)C(C)(C)C)c21.Cl` [Example 7, N-(4,6-dimethyl-1-octyl-5-ureidoindolin-7-yl)-2,2-dimethylpropanamide hydrochloride], the “Hepatic ACAT inhibitory ratio (%)” value in assay [1] came to 95.7%. The inhibition at 1 µM in assay [2] is 90.9%.

For the compound `CCCN1c2c(c(C)c(NS(N)(=O)=O)c(C)c2NC(=O)C(C)(C)C)CC1CSC.Cl` (centres unmarked) [Example 57, N-(4,6-dimethyl-2-methylthiomethyl-1-propyl-5-sulfamoylaminoindolin-7-yl)-2,2-dimethylpropanamide hydrochloride], the “Hepatic ACAT inhibitory ratio (%)” value in assay [1] was 94.2%. In addition, in assay [2], the inhibition at 1 µM was 79.9%.

For `Cc1c2c(c(NC(=O)C(C)(C)C)c(C)c1NS(N)(=O)=O)N(CCC(C)C)CC2.Cl` [Example 20, N-[1-(3-methylbutyl)-4,6-dimethyl-5-sulfamoylaminoindolin-7-yl]-2,2-dimethylpropanamide hydrochloride], the “Hepatic ACAT inhibitory ratio (%)” value in assay [1] is 95.7%. In addition, the inhibition at 1 µM in assay [2] turned out to be 74.7%.

For `Cc1c2c(c(NC(=O)C(C)(C)C)c(C)c1NS(N)(=O)=O)N(C1CCCC1)CC2.Cl` [Example 43, N-(1-cyclopentyl-4,6-dimethyl-5-sulfamoylaminoindolin-7-yl)-2,2-dimethylpropanamide hydrochloride], in assay [1], the “Hepatic ACAT inhibitory ratio (%)” value was found to be 90.9%. Also, the inhibition at 1 µM in assay [2] is 58.7%.

On to `CCCCCCCCCC(C)(C)C(=O)Nc1c(C)c2c(c(NC(N)=O)c1C)NCC2` [Example 27, N-(4,6-dimethyl-7-ureidoindolin-5-yl)-2,2-dimethylundecanamide], for which, in assay [1], the “Hepatic ACAT inhibitory ratio (%)” value is on record as 78.6%.

Take `CCCCCCCCCC(C)(C)C(=O)Nc1c(C)c2c(c(NS(C)(=O)=O)c1C)N(C)CC2` [Example 9, N-(7-methanesulfonylamino-1,4,6-trimethylindolin-5-yl)-2,2-dimethylundecanamide]: the inhibition at 1 µM in assay [2] came out at 70.9%.

For `CCCCCCCCN1CCc2c(C)c([N+](=O)[O-])c(C)c(NC(=O)C(C)(C)C)c21` [Example 1, N-(4,6-dimethyl-5-nitro-1-octylindolin-7-yl)-2,2-dimethylpropanamide], in assay [1], the “Hepatic ACAT inhibitory ratio (%)” value came to 97.4%.

For the compound `CCCCCCCCN1CCc2c(C)c(NS(=O)(=O)NC(C)=O)c(C)c(NC(=O)C(C)(C)C)c21` [Example 3, N-[5-(N-acetylsulfamoylamino)-4,6-dimethyl-1-octylindolin-7-yl]-2,2-dimethylpropanamide], in assay [1], the “Hepatic ACAT inhibitory ratio (%)” value is 89.3%.

As to `CCOCCN1CCc2c(C)c(NS(N)(=O)=O)c(C)c(NC(=O)C(C)(C)C)c21.Cl` [Example 46, N-[1-(2-ethoxyethyl)-4,6-dimethyl-5-sulfamoylaminoindolin-7-yl]-2,2-dimethylpropanamide hydrochloride], the “Hepatic ACAT inhibitory ratio (%)” value in assay [1] was determined as 89.2%. Further, the inhibition at 1 µM in assay [2] was 59.1%.

As for `CCCCCCCCCC(C)(C)C(=O)Nc1c(C)c2c(c(NS(N)(=O)=O)c1C)NCC2.Cl` [Example 26, N-(4,6-dimethyl-7-sulfamoylaminoindolin-5-yl)-2,2-dimethylundecanamide hydrochloride], the “Hepatic ACAT inhibitory ratio (%)” value in assay [1] was 95.4%. Besides, the inhibition at 1 µM in assay [2] amounted to 75.3%.

Regarding `Cc1c2c(c(NC(=O)C(C)(C)C)c(C)c1NS(N)(=O)=O)N(CC(C)C)CC2.Cl` [Example 21, N-[1-(2-methylpropyl)-4,6-dimethyl-5-sulfamoylaminoindolin-7-yl]-2,2-dimethylpropanamide hydrochloride], in assay [1], the “Hepatic ACAT inhibitory ratio (%)” value is listed as 92.7%. Further, the inhibition at 1 µM in assay [2] is 77.1%.

With `CCCCCCCCCC(C)(C)C(=O)Nc1c(C)c2c(c(NS(=O)(=O)c3ccc(C)cc3)c1C)NCC2` [Example 25, N-[4,6-dimethyl-7-(p-toluene)sulfonylaminoindolin-5-yl]-2,2-dimethylundecanamide], the “Hepatic ACAT inhibitory ratio (%)” value in assay [1] is on record as 94.3%. Besides, the “foam cell formation inhibitory rate (%)” value in assay [2] is reported as 89.4%.

As for `CCCCCCCCN1CCc2c(C)c(CNS(C)(=O)=O)c(C)c(NC(=O)C(C)(C)C)c21.Cl` [Example 10, N-(5-methanesulfonylaminomethyl-4,6-dimethyl-1-octylindolin-7-yl)-2,2-dimethylpropanamide hydrochloride], the “Hepatic ACAT inhibitory ratio (%)” value in assay [1] was determined as 87.3%.

Consider `CCCN1c2c(c(C)c(NS(N)(=O)=O)c(C)c2NC(=O)C(C)(C)C)CC1CSCC.Cl` (centres unmarked) [Example 59, N-(2-ethylthiomethyl-4,6-dimethyl-1-propyl-5-sulfamoylaminoindolin-7-yl)-2,2-dimethylpropanamide hydrochloride], for which the “Hepatic ACAT inhibitory ratio (%)” value in assay [1] was 98.1%. The inhibition at 1 µM in assay [2] came out at 92.1%.

For `CCOCCN1c2c(c(C)c(NS(N)(=O)=O)c(C)c2NC(=O)C(C)(C)C)CC1C` (centres unmarked) [Example 54, N-[1-(2-ethoxyethyl)-2,4,6-trimethyl-5-sulfamoylaminoindolin-7-yl]-2,2-dimethylpropanamide hydrochloride], the inhibition at 1 µM in assay [2] was found to be 64.5%.

As to `CCCCCCCCCC(C)(C)C(=O)Nc1c(C)c2c(c(NS(C)(=O)=O)c1C)NCC2` [Example 8, N-(7-methanesulfonylamino-4,6-dimethylindolin-5-yl)-2,2-dimethylundecanamide], the “Hepatic ACAT inhibitory ratio (%)” value in assay [1] was 96.3%. Also, the inhibition at 1 µM in assay [2] stood at 89.2%.

On to `CCCCCCCCCC(C)(C)C(=O)Nc1c(C)c2c(c(NS(=O)(=O)C(C)C)c1C)NCC2.Cl` [Example 23, N-[4,6-dimethyl-7-(2-propanesulfonylamino)indolin-5-yl]-2,2-dimethylundecanamide hydrochloride], for which, in assay [1], the “Hepatic ACAT inhibitory ratio (%)” value is recorded as 96.2%. In addition, in assay [2], the inhibition at 1 µM was determined as 90.5%.
